Test results published in US20230277569A1, “Compositions and Methods for Treating, Ameliorating and/or Preventing Cancer and Kits for the Same” (priority 2022, published 2023).
Entries after “also recorded” stand apart in the source; their conditions may differ. Where two headings read alike, the source gives them in different places.

Tests used:
CYP3A4 = CYP3A4 (Homo sapiens, UniProt P08684); experiment: CYP inhibition in liver microsomes, CYP3A4; assay type: in vitro ADME; details: human liver microsomes 0.1 mg/mL
Procedure: (§2) After addition of prototypical CYP substrates in 250 μL, samples were incubated for 10 min (CYP1A2, CYP2B6, CYP2C9, and CYP3A4) or 20 min (CYP2C8) at 37° C. in 5% CO2. […] Samples were analyzed for metabolite formation by LC-MS/MS. The results were expressed using the peak area ratio of analyte to internal standard, based on the calibration curves.
(§3) where Range=fitted uninhibited value, s=slope factor, x=inhibitor concentration, y=% control activity.

CYP2C8 = CYP2C8 (Homo sapiens, UniProt P10632); experiment: CYP inhibition in liver microsomes, CYP2C8; assay type: in vitro ADME; details: human liver microsomes 0.1 mg/mL
Procedure: as §2, §3

[1] = Stability in human plasma; assay type: in vitro ADME
CYP2B6 = CYP2B6 (Homo sapiens, UniProt P20813); experiment: CYP inhibition in liver microsomes, CYP2B6; assay type: in vitro ADME; details: human liver microsomes 0.1 mg/mL
Procedure: as §2, §3

tumor cells = details: in culture; read-out: IC50 tumor cell killing; cited from earlier work
melanoma cell lines = details: melanoma lines of NCI 60 screen; read-out: IC50 anticancer activity; cited from earlier work
beagle dogs = experiment: Toxicity in beagle dogs, IV infusion for 36 d; assay type: in vivo
Procedure: (§1) Eighteen male and female (5-6 mo old) purebred beagle dogs (Cumberland, Va.) were acclimated for 47 d (20 to 26° C., relative humidity 30-70%, 10 or greater air changes/h, and a 12-h light/dark cycle) prior to study initiation. Animals were given water ad libitum and Certified Canine Diet #5007 (PMI Nutrition International Certified LabDiet®) for 4 to 5 h each day. At study initiation, animal body weights ranged from 8.6 to 11.5 kg for males and 6.0 to 9.4 kg for females. At least 1 week prior to initiation of dosing, animals were fasted overnight, anesthetized, and a catheter attached to a subcutaneous vascular access port was surgically implanted into a jugular vein. Animals were acclimated to infusion jackets prior to catheter implantation surgery. Animals were infused with sterile saline at a dose rate of 5 mL/h when the vascular access ports were accessed and when animals were connected to the infusion system (except when dosed with the test or vehicle control article). The patency of each catheter was checked as needed. Prednisolone tablets were administered orally at 2 mg/kg the night prior to dosing. Diphenhydramine (5 mg/kg; IM injection 0.1 mL/kg, 50 mg/mL) was administered prior to dosing and post the start of infusion (d 1 only). Male and female dogs received dose levels of Gamitrinib of 1.25, 3.33 and 6.25 mg/kg/dose formulated as indicated above during a 1 h infusion on d 1, 8, 11, 15, 18, 22, 25, 29, 32, and 36 at a volume of 2 mL/kg. The vehicle control was as above. […] Dosing was stopped, and 23 of 24 animals were administered additional diphenhydramine, 11 were administered Flunixin meglumine and buprenorphine, and 6 were administered acepromazine. Symptoms subsided in all animals after completion of these interventions. As a result of these observations, the polysorbate levels, which were increased from 0.025% (w/v) to 0.125% (w/v) to minimize precipitation, were returned to the original concentrations; 2 mg/kg prednisone was administered orally the night prior to dosing; and the diphenhydramine pretreatment dose was updated to 5 mg/kg 15 to 30 min prior to dosing. Detailed observations were conducted for each animal up to seven times during the predose phase, prior to dosing on d 1, 8, 15, 22, 29, and 36 of the dosing phase, and on d 1, 7, and 14 of the recovery phase. Blood samples (1 mL) were collected via the cephalic vein 5, 15, and 30 min and 1, 4, 8, and 24 h post the end of infusion on d 8 and 36 of the dosing phase. Formalin-fixed and paraffin-embedded tissue samples collected at the end of the study (d 39) were processed for histologic examination.

[2] = Toxicity in beagle dogs, IV infusion for 36 d; assay type: in vivo; details: beagle, dog, in vivo, iv, dogs; for AUC(0-t): read-out: AUC0-24
Procedure: as §1

[3] = Phase I, cytochrome P450-mediated human liver microsome metabolism
[4] = 3.33 mg/kg/dose (NOAEL), d 36 of dosing, both sexes
[5] = 6.25 mg/kg/dose (HNSTD), d 36, both sexes

Sequence of CYP3A4 (P08684 whole entry): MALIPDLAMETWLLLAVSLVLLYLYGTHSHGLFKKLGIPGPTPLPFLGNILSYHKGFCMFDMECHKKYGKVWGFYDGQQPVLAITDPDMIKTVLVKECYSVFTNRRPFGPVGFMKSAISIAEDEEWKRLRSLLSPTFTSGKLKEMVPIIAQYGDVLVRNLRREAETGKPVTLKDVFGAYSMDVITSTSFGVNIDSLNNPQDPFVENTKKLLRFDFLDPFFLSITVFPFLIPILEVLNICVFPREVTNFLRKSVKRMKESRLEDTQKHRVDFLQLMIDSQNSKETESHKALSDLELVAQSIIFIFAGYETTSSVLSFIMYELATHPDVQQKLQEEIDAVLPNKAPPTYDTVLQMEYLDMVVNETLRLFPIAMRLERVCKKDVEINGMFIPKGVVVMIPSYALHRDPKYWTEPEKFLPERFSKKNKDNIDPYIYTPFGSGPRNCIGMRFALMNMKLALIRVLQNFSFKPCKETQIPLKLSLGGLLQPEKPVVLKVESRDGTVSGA
Sequence of CYP2C8 (P10632 whole entry): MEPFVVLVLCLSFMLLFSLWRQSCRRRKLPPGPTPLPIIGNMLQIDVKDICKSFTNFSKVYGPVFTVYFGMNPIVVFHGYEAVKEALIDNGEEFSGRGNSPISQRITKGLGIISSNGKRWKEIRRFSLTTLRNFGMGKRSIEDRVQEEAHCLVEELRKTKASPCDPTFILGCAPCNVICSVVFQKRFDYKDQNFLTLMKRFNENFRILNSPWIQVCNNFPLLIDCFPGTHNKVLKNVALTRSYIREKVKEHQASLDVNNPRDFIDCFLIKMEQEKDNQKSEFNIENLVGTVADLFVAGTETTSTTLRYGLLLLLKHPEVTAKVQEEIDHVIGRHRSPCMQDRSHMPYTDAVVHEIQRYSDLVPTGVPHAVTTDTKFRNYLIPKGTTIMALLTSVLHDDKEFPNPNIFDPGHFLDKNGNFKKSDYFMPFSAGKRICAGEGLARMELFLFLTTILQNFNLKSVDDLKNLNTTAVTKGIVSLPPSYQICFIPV
Sequence of CYP2B6 (P20813 whole entry): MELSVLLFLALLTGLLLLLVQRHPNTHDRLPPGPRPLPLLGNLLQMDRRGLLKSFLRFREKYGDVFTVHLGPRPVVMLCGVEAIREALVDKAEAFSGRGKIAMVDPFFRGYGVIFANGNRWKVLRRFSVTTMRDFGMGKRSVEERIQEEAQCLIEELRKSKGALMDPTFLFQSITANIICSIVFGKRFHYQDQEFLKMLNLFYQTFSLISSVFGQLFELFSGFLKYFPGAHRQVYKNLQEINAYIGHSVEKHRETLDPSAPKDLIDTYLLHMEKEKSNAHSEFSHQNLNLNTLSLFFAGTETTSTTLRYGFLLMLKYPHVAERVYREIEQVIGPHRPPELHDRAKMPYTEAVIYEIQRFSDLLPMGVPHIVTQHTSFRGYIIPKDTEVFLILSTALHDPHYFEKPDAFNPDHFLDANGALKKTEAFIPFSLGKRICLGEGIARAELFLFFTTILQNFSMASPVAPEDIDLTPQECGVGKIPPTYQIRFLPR

CO[C@H]1/C=C\C=C(/C)C(=O)NC2=CC(=O)C(NCCCCCC[P+](c3ccccc3)(c3ccccc3)c3ccccc3)=C(C[C@@H](C)C[C@H](OC)[C@H](O)[C@@H](C)/C=C(\C)[C@@H]1OC(N)=O)C2=O [Gamitrinib, 17-Demethoxy-17-((6-(triphenylphosphonio)hexyl)amino)geldanamycin]
IC50 (CYP3A4): 120 to 200 nM
IC50 (CYP2C8): 8 µM
recovery [1]: 82.8 ± 3%
stability in human plasma [1]: 91.4%
IC50 (CYP2B6): 16 µM
IC50 (tumor cells): 1000 to 4000 nM
IC50 (melanoma cell lines): 360 to 2700 nM
NOAEL (beagle dogs; beagle dogs, IV for 36 d): 3.33 mg/kg/dose
highest non-severely toxic dose (HNSTD) (beagle dogs; beagle dogs, IV for 36 d): 6.25 mg/kg/dose
Bone marrow and liver parameters (beagle dogs; dog, in vivo): unremarkable
changes in organ weights (beagle dogs; dog, in vivo): No Gamitrinib-related changes
serum urea nitrogen and creatinine (beagle dogs; dogs (both sexes), 6.25 mg/kg/dose, 6.25 mg/kg): trend of increased serum urea nitrogen and creatinine; also recorded: modest elevation of urea nitrogen and creatinine concentrations
kidney microscopic finding (beagle dogs; dogs, 6.25 mg/kg/dose, reversible during recovery): slight to moderate kidney tubular degeneration/regeneration
alterations in body weight or other clinical observations (beagle dogs; dogs, 1.25, 3.33 and 6.25 mg/kg/dose): no alterations
Body weight (beagle dogs; female dogs, 3.33 mg/kg, day 1): 7.6 ± 0.9 kg
Body weight (beagle dogs; female dogs, 3.33 mg/kg, day 8): 7.6 ± 0.9 kg
Body weight (beagle dogs; female dogs, 3.33 mg/kg, day 15): 7.6 ± 1.06 kg
Body weight (beagle dogs; female dogs, 3.33 mg/kg, day 22): 7.5 ± 0.75 kg
Body weight (beagle dogs; female dogs, 3.33 mg/kg, day 29): 7.6 ± 0.7 kg
Body weight (beagle dogs; female dogs, 3.33 mg/kg, day 36): 7.5 ± 0.8 kg
Body weight (beagle dogs; female dogs, 6.25 mg/kg, day 1): 7.7 ± 0.57 kg
Body weight (beagle dogs; female dogs, 6.25 mg/kg, day 8): 7.7 ± 0.62 kg
Body weight (beagle dogs; female dogs, 6.25 mg/kg, day 15): 7.4 ± 0.54 kg
Body weight (beagle dogs; female dogs, 6.25 mg/kg, day 22): 7.2 ± 0.6 kg
Body weight (beagle dogs; female dogs, 6.25 mg/kg, day 29): 7.3 ± 0.58 kg
Body weight (beagle dogs; female dogs, 6.25 mg/kg, day 36): 7.3 ± 0.59 kg
Body weight (beagle dogs; male dogs, 3.33 mg/kg, day 1): 10.1 ± 1.1 kg
Body weight (beagle dogs; male dogs, 3.33 mg/kg, day 8): 10 ± 1.04 kg
Body weight (beagle dogs; male dogs, 3.33 mg/kg, day 15): 9.9 ± 1.15 kg
Body weight (beagle dogs; male dogs, 3.33 mg/kg, day 22): 10.2 ± 1.21 kg
Body weight (beagle dogs; male dogs, 3.33 mg/kg, day 29): 10.1 ± 1.21 kg
Body weight (beagle dogs; male dogs, 3.33 mg/kg, day 36): 10 ± 1.36 kg
Body weight (beagle dogs; male dogs, 6.25 mg/kg, day 1): 9.9 ± 0.83 kg
Body weight (beagle dogs; male dogs, 6.25 mg/kg, day 8): 9.8 ± 0.85 kg
Body weight (beagle dogs; male dogs, 6.25 mg/kg, day 15): 9.5 ± 0.57 kg
Body weight (beagle dogs; male dogs, 6.25 mg/kg, day 22): 9.2 ± 0.57 kg
Body weight (beagle dogs; male dogs, 6.25 mg/kg, day 29): 9.2 ± 0.46 kg
Body weight (beagle dogs; male dogs, 6.25 mg/kg, day 36): 9.1 ± 0.58 kg
Cmax [2, 4]: 560 ± 404 ng/mL
AUC(0-t) [2, 4]: 1740 ± 713 ng·h/mL
Cmax [2, 5]: 1260 ± 556 ng/mL
AUC(0-t) [2, 5]: 3290 ± 1090 ng·h/mL
elimination rate constant (k) ([3]; 0.5 μM, human liver microsomes): 0.041
intrinsic clearance (CLint) ([3]; 0.5 μM, human liver microsomes): 3.30 mL/min/g
half-life at 0.5 μM ([3]; human, liver microsomes): 16.7 min
